We go through nine compounds from patent publication US6267945A, “Farnesol-related calcium channel blockers” (NeuroMed Technologies, Inc., priority 1998, dated 2001).

Where two headings read alike, the source gives them in different places.

Test [1] deals with T1, N-type calcium channel (α1B + α2 + β1b) (Rattus norvegicus, UniProt Q02294).
T1 construct: expressed in transfected cells; host or cells: HEK293 cells stably expressing, or HEK TSA 201 cells transiently transfected with, α1B + α2 + β1b
T1 sequence (Q02294 whole entry): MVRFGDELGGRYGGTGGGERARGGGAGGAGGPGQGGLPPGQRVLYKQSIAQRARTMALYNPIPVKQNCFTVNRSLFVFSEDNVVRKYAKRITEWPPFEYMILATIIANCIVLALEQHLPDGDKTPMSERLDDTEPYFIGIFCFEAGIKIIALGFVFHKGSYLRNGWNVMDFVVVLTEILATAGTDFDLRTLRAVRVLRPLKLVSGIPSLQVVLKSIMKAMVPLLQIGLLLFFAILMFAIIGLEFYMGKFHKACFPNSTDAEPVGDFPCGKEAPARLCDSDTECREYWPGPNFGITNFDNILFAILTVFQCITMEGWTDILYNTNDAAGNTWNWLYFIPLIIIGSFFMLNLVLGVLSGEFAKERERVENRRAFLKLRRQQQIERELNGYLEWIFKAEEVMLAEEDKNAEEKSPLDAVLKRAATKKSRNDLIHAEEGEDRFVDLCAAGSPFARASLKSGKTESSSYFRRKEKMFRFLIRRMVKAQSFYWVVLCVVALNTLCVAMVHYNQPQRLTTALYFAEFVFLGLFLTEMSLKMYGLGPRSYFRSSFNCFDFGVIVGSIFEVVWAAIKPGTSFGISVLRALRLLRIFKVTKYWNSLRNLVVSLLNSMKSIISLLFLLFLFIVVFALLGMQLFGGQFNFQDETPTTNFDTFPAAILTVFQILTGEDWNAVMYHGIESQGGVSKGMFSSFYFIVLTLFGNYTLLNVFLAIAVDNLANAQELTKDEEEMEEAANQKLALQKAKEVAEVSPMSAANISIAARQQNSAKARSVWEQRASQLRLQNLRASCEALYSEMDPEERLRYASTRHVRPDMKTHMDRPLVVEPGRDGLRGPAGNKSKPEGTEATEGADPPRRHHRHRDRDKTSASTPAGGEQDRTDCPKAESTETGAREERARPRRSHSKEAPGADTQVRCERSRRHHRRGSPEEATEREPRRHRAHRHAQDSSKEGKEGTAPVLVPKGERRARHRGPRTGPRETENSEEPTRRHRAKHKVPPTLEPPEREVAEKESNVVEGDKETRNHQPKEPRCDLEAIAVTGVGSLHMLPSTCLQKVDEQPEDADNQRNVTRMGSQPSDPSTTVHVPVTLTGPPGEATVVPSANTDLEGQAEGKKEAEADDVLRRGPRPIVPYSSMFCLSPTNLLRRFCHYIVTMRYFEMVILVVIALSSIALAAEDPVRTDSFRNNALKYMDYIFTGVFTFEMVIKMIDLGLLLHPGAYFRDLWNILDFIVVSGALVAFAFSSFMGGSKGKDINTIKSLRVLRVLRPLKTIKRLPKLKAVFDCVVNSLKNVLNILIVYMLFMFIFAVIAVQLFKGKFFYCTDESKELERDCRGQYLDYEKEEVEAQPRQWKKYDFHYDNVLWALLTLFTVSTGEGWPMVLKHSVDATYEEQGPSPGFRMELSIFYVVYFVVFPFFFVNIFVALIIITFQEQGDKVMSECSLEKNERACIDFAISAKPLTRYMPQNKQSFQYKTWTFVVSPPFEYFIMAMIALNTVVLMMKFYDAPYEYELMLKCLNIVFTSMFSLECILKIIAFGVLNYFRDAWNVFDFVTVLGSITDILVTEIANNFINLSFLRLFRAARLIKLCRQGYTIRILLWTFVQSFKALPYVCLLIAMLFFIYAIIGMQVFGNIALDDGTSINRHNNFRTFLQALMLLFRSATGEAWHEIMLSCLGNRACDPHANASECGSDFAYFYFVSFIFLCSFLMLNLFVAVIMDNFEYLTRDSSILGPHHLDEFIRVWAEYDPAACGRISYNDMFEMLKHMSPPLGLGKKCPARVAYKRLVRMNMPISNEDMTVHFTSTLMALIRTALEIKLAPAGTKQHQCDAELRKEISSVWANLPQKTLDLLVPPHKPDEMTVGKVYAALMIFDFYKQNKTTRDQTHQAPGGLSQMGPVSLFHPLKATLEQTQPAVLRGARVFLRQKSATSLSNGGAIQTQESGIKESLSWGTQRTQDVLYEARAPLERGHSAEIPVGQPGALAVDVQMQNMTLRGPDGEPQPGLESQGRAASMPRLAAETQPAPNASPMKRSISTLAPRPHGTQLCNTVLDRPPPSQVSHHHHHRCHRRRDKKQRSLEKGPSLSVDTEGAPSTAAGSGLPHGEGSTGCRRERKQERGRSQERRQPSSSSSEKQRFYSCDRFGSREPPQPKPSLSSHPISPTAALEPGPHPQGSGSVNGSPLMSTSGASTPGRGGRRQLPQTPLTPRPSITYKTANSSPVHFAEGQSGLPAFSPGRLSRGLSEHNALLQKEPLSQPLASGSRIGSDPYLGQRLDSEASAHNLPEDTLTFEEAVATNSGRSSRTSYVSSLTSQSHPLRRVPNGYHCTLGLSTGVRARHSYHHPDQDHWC
T1 sequence (P54290 25-944 partner limits assumed): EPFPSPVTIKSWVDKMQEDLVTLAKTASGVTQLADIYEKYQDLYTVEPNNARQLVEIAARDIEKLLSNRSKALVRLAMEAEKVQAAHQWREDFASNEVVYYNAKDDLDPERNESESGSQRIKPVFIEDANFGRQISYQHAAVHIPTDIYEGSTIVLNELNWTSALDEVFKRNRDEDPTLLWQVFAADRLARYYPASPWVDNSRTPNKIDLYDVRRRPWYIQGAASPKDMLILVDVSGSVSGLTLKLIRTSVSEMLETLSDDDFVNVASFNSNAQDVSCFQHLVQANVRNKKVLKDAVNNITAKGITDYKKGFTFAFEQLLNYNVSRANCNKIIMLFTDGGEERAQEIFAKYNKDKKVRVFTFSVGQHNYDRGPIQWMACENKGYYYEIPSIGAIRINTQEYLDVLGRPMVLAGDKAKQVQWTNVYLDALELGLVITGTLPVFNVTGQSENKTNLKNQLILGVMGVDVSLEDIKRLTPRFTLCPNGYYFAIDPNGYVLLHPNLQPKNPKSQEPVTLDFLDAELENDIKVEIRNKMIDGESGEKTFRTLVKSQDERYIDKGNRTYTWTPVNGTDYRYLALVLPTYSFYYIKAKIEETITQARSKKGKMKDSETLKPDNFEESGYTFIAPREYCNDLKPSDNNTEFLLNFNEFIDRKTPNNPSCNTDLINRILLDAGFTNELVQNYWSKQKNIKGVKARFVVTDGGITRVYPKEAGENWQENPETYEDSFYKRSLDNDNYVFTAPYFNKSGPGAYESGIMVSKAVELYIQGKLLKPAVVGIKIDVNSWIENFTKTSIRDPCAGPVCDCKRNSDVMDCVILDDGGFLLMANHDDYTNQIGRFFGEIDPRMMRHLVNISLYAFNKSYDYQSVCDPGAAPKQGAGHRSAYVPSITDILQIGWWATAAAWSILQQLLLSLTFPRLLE
T1 sequence (P54290 945-1091 partner limits assumed): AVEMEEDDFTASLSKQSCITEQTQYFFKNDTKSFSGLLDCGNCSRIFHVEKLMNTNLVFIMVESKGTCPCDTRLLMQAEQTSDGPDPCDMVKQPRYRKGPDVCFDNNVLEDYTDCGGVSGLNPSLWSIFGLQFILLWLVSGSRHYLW
T1 sequence (P54283 whole entry partner): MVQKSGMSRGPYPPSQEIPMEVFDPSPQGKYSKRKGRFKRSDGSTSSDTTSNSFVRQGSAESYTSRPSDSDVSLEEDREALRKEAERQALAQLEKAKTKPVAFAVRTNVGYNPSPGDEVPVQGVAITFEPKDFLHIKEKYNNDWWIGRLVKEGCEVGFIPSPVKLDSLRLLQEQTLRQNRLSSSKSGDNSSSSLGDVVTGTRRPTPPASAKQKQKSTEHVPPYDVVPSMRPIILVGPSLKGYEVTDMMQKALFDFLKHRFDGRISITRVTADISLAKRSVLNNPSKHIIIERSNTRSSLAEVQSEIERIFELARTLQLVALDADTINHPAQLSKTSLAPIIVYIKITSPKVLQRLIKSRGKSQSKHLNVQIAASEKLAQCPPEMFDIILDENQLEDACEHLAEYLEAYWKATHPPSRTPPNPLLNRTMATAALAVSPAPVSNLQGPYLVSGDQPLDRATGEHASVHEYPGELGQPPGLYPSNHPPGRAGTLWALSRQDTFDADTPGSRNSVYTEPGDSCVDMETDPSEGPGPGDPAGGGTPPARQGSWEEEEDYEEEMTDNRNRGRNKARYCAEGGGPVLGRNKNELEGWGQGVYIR
Briefly: Open-channel block of N-type calcium channels, whole cell patch clamp, holding potential -100 mV. Type of test: cell-based. Conditions: for inhibition at 10 µM: read-out: Open/Resting Block (determined at 10 μM); for normalized peak height: -100 mV to +20 mV. An excerpt:
(§1) There are two distinguishable types of calcium channel inhibition. […] A second type of block is referred to herein as "inactivation inhibition." When maintained at less negative resting potentials, such as the physiologically important potential of -70 mV, a certain percentage of the receptor channels may undergo conformational change, rendering them incapable of being activated--i.e., opened--by the abrupt depolarization. Thus, the peak current due to calcium ion flow will be diminished not because the open channel is blocked, but because some of the channels are unavailable for opening (inactivated). "Inactivation" type inhibitors increase the percentage of receptors that are inactivated.
(§2) As described above, a more definitive assay can be used to distinguish inhibitors of calcium flow which operate as open channel blockers, as opposed to those that operate by promoting inactivation of the channel. The methods to distinguish these types of inhibition are more particularly described in the examples below. In general, open-channel blockers are assessed by measuring the level of peak current when deploarization is imposed on a background resting potential of about -100 mV in the presence and absence of the candidate compound. Successful open-channel blockers will reduce the peak current observed and accelerate the decay of this current. Compounds that are inactivated channel blockers are determined by their ability to shift the voltage dependence of inactivation towards more negative potentials. This is also reflected in their ability to reduce peak currents at more depolarized holding potentials(e.g., -70 mV).
(§3) Human embryonic kidney TSA 201 cells were grown in standard DMEM medium, supplemented with 10% fetal bovine serum and 0.4 mg/ml neomycin. The cells were grown to 80% confluency, split with trypsin EDTA and plated on glass coverslips at 10% confluency 12 hours prior to transfection. Immediately prior to transfection, the medium was replaced and the cells were transiently transfected with cDNAs encoding calcium channel α1B, β1b and α2 subunits (at a 1:1:1 molar ratio) using a standard calcium phosphate protocol. After 12 hours, the medium was replaced with fresh DMEM and the cells were allowed to recover for 12 hours. Subsequently the cells were incubated at 28° C. in 5% CO2 for 1-2 days prior to recording. Human embryonic kidney cells stably expressing N-type α1B +α2 +β1b were maintained and plated for electrophysiological recordings as described by Zamponi, G. W. et al., Nature (1997) 385:442-446.
Immediately prior to recording, individual cover slips were transferred to a 3 cm culture dish containing an external recording solution. The external recording solution was 20 mM BaCl2, 1 mM MgCl2, 10 mM HEPES, 40 mM TEACl, 10 mM glucose, 65 mM CsCl (pH 7.2) or 5 mM BaCl2, 1 mM MgCl2, 10 mM HEPES, 40 mM TEACl, 10 mM glucose, 87.5 mM CsCl (pH 7.2). […] The internal pipette solution is 105 mM CsCl, 25 mM TEACl, 1 mM CaCl2, 11 mM EGTA, 10 mM HEPES (pH 7.2). Whole cell patch clamp experiments were performed using an Axopatch 200B amplifier (Axon Instruments, Burlingame, Calif.) linked to an IBM compatible personal computer equipped with pCLAMP 6.0 software. Currents were typically elicited from a holding potential of -100 mV to various test potentials. The compounds to be tested were prepared as stock solutions in ethanol and diluted into the recording solution at the appropriate final concentrations, and perfused directly onto the cells using a gravity driven microperfusion system. At the applicable concentrations, ethanol by itself had no effect on calcium channel activity. Data were filtered at 1 kHz and recorded directly on the hard drive of a personal computer. The data were analyzed using ClampFit (Axon Instruments). Curve fitting was carried out in Sigmaplot 4.0 (Jandel Scientific). Steady state inactivation curves were fitted with a Boltzman equation, […]
On the technique in general: In patch-clamp work, channel activity is measured electrically.

In test [2] the target is T1, N-type calcium channel (α1B + α2 + β1b). Briefly: Inactivation of N-type calcium channels (steady state inactivation, shift in V0.5), whole cell patch clamp. The test is classed as cell-based.
Source text: as §1, §2, §3
Immediately prior to recording, individual cover slips were transferred to a 3 cm culture dish containing an external recording solution. The external recording solution was 20 mM BaCl2, 1 mM MgCl2, 10 mM HEPES, 40 mM TEACl, 10 mM glucose, 65 mM CsCl (pH 7.2) or 5 mM BaCl2, 1 mM MgCl2, 10 mM HEPES, 40 mM TEACl, 10 mM glucose, 87.5 mM CsCl (pH 7.2). […] The internal pipette solution is 105 mM CsCl, 25 mM TEACl, 1 mM CaCl2, 11 mM EGTA, 10 mM HEPES (pH 7.2). Whole cell patch clamp experiments were performed using an Axopatch 200B amplifier (Axon Instruments, Burlingame, Calif.) linked to an IBM compatible personal computer equipped with pCLAMP 6.0 software. Currents were typically elicited from a holding potential of -100 mV to various test potentials. The compounds to be tested were prepared as stock solutions in ethanol and diluted into the recording solution at the appropriate final concentrations, and perfused directly onto the cells using a gravity driven microperfusion system. At the applicable concentrations, ethanol by itself had no effect on calcium channel activity. Data were filtered at 1 kHz and recorded directly on the hard drive of a personal computer. The data were analyzed using ClampFit (Axon Instruments). Curve fitting was carried out in Sigmaplot 4.0 (Jandel Scientific). Steady state inactivation curves were fitted with a Boltzman equation,
Ipeak(normalized) =1/(1+exp((V-Vh)Z/25.6)) […]

For test [3], the system named is P/Q type calcium channel (α1A). As to the kind of experiment: Inactivation effect on P/Q-type channels, resting potential -70 mV. The test is classed as cell-based. Conditions: 250 nM farnesol. The procedure: as §3
(§4) For some experiments, cells were prepared wherein the α1B unit was replaced by α1A (P/Q type) α1C (type L) or α1E (undefined). α1B represents N-type.
(§5) Immediately prior to recording, individual cover slips were transferred to a 3 cm culture dish containing an external recording solution. […] Data were filtered at 1 kHz and recorded directly on the hard drive of a personal computer. The data were analyzed using ClampFit (Axon Instruments). […]

For another test, the system named is L-type receptors. Conditions: micromolar range; cited from earlier work.
Test [4] relates to L-type calcium channel (α1C). Briefly: Inactivation effect on L-type channels, resting potential -70 mV. Type of test: cell-based. Conditions: 250 nM farnesol. Here is the method: as §3, §4, §5
Test [5] has as its system P/Q type calcium channel (α1A). Briefly: Open-channel block of P/Q-type channels, resting potential -100 mV. Conditions: 25 μM farnesol. Type of test: cell-based. The procedure:
as §3, §4, §5

For test [6], the system named is α1E calcium channel. Briefly: Open-channel block of α1E channels, resting potential -100 mV. Conditions: 25 μM farnesol. The test is classed as cell-based. The procedure: as §3, §4, §5
Test [7] concerns L-type calcium channel (α1C). As to the kind of experiment: Open-channel block of L-type channels, resting potential -100 mV. The test is classed as cell-based. Conditions: 25 μM farnesol. The procedure:
as §3, §4, §5

For test [8], the system named is α1E calcium channel. As to the kind of experiment: Inactivation effect on α1E channels, resting potential -70 mV. Conditions: 250 nM farnesol. Type of test: cell-based. Here is the method:
as §3, §4, §5

Where [9] appears, read: corrected for control inactivation rate, linear fit.

`CC(C)CCCC(C)CCCC(C)CCCC(C)C` (stereo not drawn): in test [1], the “nonspecific open-channel blocking activity (summary in words)” value is on record as “relatively lacking” and the “Open/Resting Block (determined at 10 μM)” value is less than 10%. In test [2], the “Inactivated Block (shift in V0.5)” value was ~ 10 mV and the “inactivation-type inhibition specific to the N-type receptor (summary in words)” value (“inactivation-type inhibition specific” below) is “able to promote substantial inactivation-type inhibition”.

`CCCCCCCCCCN` [decylamine]: in test [1], the inhibition at 10 µM was greater than 80%. The “Inactivated Block (shift in V0.5)” value in test [2] was ~ 10 mV.

Take `CCCCCCCCCCCC` [dodecane]: in test [1], the “nonspecific open-channel blocking activity (summary in words)” value is listed as “relatively lacking” and the inhibition at 10 µM is 10 to 20%. In test [2], the “Inactivated Block (shift in V0.5)” value is on record as ~ 10 mV and the “inactivation-type inhibition specific” value is reported as “able to promote substantial inactivation-type inhibition”.

As for `CCCCCCCCCCCCN` [dodecylamine], in [1], the inhibition at 10 µM fell in the range of 90 to 100%. In test [2], the “Inactivated Block (shift in V0.5)” value was ~ 10 mV.

Consider `CC(C)=CCCC(C)=CCCC(C)=CCO` [farnesol], for which the “peak current at -70 mV resting potential normalized to -100 mV” value in [3] is “Only the N-type channels show substantially diminished values”; in test [4], “Only the N-type channels show substantially diminished values”; in test [2] (250 nM farnesol) it was “substantially diminished”; in the test with α1E calcium channel [8], “Only the N-type channels show substantially diminished values”. For the same compound, the “calcium-channel blocking, open channel blockage, channel preference” value with L-type receptors was “preference for inhibition of L-type receptors”. Besides, the “open channel blocking effect on current amplitudes” value in test [5] is given as “diminished peak heights”; in test [1] (25 μM farnesol, resting potential -100 mV) it was “diminished peak heights”; in the test with α1E calcium channel [6], “diminished peak heights”; in test [7] it was “diminished peak heights”. Further, the figures for the normalized peak height entry in test [1] (5 μM farnesol) and in test [1] (25 μM farnesol) were “diminished” and “further dramatically diminished”, respectively. Besides, the “time to decay of current to the resting level” value in test [1] (5 μM or 25 μM farnesol) is “accelerated time to decay to the resting level”. In test [1] (10 μM farnesol), the “position of peak amplitude with respect to depolarization voltage (current/voltage relationship)” value is on record as “no dependence”. Moreover, the “peak currents upon removal of farnesol (reversibility)” value in [1] (after 5 μM and 25 μM farnesol) is given as “regenerated”. Also, in test [1] (setting [9]), the “intercept of inverse time constant for current decay versus farnesol concentration” value is 7.6. Besides, in [1] (setting [9]), the “slope of inverse time constant for current decay versus farnesol concentration” value was determined as 4.8. For the same compound, the inhibition at 10 µM in test [1] came out at 60%. In test [2], the “Inactivated Block (shift in V0.5)” value is 10-25 mV. Further, the V0.5 in test [2] (100 nM farnesol) is recorded as -70 mV. Moreover, the “time course of development of current amplitude diminution” value in [2] (100 nM farnesol, resting potential -70 mV) was “slower than that obtained at a resting potential of -100 mV”. The recovery from block result in test [2] (100 nM farnesol, resting potential -70 mV, compared with open-channel blockage) is given as “much slower”. For the same compound, in [2] (250 nM farnesol, holding -70 mV to test +10 mV), the reversibility of effect entry is “does not appear to be completely reversible”. Besides, the “Z slope factor (Boltzman fit)” value worked out at 3.8 in test [2] (25 μM farnesol) and 4.0 in [2] (Wash, after 25 μM farnesol). In addition, in test [2] (25 μM farnesol), the “shift in V0.5” value is “about 20 mV”. Further, the “V0.5 (resting potential that diminishes peak currents to 1/2)” value in test [2] (25 μM farnesol present, mean values) was -70 mV. Further, the “Vh (Boltzman fit of steady state inactivation)” value in [2] (25 μM farnesol, test potential +20 mV) was -68.7 mV; in test [2] (Wash, after 25 μM farnesol), -56.5 mV. The values for the activity at 25 µM in [2] (read-out: peak current value (normalized to -100 mV resting potential)) and in [2] (read-out: peak value as % of base value (normalized to -100 mV resting potential)) were 50% and 80%, respectively. Further, the “channel type preference of open channel block” value in [7] was “preferentially inhibited”.

Consider `CC(=O)OCC=C(C)CCC=C(C)CCC=C(C)C` [farnesyl acetate], for which the inhibition at 10 µM in [1] was in the range of 90 to 100%. Further, the “Inactivated Block (shift in V0.5)” value in [2] was ~ 20 mV.

With `CC(C)=CCCC(C)=CCCC(C)=CCBr` [farnesyl bromide], in test [1], the “nonspecific open-channel blocking activity (summary in words)” value was “relatively lacking” and the inhibition at 10 µM fell in the range of 20 to 30%. Further, in [2], the “Inactivated Block (shift in V0.5)” value is given as ~ 20 mV and the “inactivation-type inhibition specific” value is given as “able to promote substantial inactivation-type inhibition”.

Turning to `CC(C)=CCCC(C)=CCCC(C)=CCOP(=O)(O)OP(=O)(O)O` [farnesyl pyrophosphate], the “Open/Resting Block (determined at 10 μM)” value in [1] was “Not active”.

On to `COC(=O)C=C(C)CCC=C(C)CCC1OC1(C)C` (stereo not drawn) [juvenile hormone III], for which, in test [1], the “nonspecific open-channel blocking activity (summary in words)” value is listed as “relatively lacking” and the “Open/Resting Block (determined at 10 μM)” value is “Not active”. Moreover, in [2], the “Inactivated Block (shift in V0.5)” value is on record as ~ 10 mV and the “inactivation-type inhibition specific” value is on record as “able to promote substantial inactivation-type inhibition”.
